Literature values, collected in patent US11065330B2, “Induction of antigen-specific tolerance by peripheral phagocytosis” (PLS-Design GmbH, priority 2014, dated 2021).
Entries after “also recorded” stand apart in the source; their conditions may differ. Like-named read-outs stand apart in the source and are kept apart here. Where no end group is shown, it is not given here.

Assays:
murine CD22 = murine CD22 (Mus musculus, UniProt P35329)
EAE model = conditions: i.p. 5 μg/kg every 2 days
[1] = for solubility in 1:5 solution of ethanol:PBS: 1:5 ethanol:PBS, pH 7.2
[2] = test system: OVA-induced allergic asthma in mice; conditions: 10 ng with 100 μg OVA immunotherapy
[3] = test system: Lyme arthritis and collagen-induced arthritis in mice; conditions: diet, 20 ng/mouse/day
[4] = test system: human polymorphonuclear leukocyte (PMN) transendothelial migration; conditions: read-out: EC50, reduction of PMN transendothelial migration
[5] = test system: mouse model of peritonitis; conditions: 100 ng dose
NF-kappa B translocation = conditions: read-out: concentration for 50% inhibition
IL-4 gene transcription = conditions: read-out: concentration for 50% inhibition
phagocytes = conditions: for maximal migration of phagocytes, increase: at about 100 nM
[6] = test system: isolated rat cardiomyocytes; design: dose or concentration left out as unconfirmed; conditions: preincubation 2-3 hours, GSM or exogenous NAC
[7] = test system: ovalbumin-specific IgE and IgG1 responses
cystic fibrosis = conditions: oral 600 mg to 1000 mg three times daily, 4 weeks
[8] = test system: intestinal ischaemia/reperfusion injury model; conditions: 10 mg/kg i.v., rats
[9] = not given; remark: listed apart in the source
rheumatoid arthritis = conditions: three months, on methotrexate
[10] = for time detectable in serum by HPLC: rats
psoriasis = conditions: more than 10 years clinical use
[11] = test system: OVA-induced allergy in mice; conditions: topical calcipotriol, then transcutaneous OVA with CpG adjuvant
calcium metabolism = conditions: compared to 1,25-(OH)2D3
asthma exacerbation = conditions: six months, budesonide 800 μg/d and cholecalciferol 500 IU
[12] = test system: alternative pathway of complement activation (C3) in sera from guinea pigs; conditions: read-out: IC50 of haemolytic activity
[13] = test system: alternative pathway of complement activation (C3) in sera from rats; conditions: read-out: IC50 of haemolytic activity
[14] = test system: baboon model of Escherichia coli sepsis; conditions: 10 mg/kg i.v. bolus then 60 μg/kg/min infusion
[15] = test system: alternative pathway of complement activation (C3) in sera from mice; conditions: read-out: IC50 of haemolytic activity
[16] = human, in vivo
[17] = test system: IL-4/IL-13-mediated effects in murine model of allergy; conditions: 50 μg pre and post OVA, then 30 μg twice a day, day 1 to 8
[18] = test system: OVA-induced allergic airway inflammation; conditions: intranasal 10 μg every fourth day, 3 weeks
[19] = 1.0 g/liter in drinking water, 8 days

murine CD22, sequence (P35329 22-868): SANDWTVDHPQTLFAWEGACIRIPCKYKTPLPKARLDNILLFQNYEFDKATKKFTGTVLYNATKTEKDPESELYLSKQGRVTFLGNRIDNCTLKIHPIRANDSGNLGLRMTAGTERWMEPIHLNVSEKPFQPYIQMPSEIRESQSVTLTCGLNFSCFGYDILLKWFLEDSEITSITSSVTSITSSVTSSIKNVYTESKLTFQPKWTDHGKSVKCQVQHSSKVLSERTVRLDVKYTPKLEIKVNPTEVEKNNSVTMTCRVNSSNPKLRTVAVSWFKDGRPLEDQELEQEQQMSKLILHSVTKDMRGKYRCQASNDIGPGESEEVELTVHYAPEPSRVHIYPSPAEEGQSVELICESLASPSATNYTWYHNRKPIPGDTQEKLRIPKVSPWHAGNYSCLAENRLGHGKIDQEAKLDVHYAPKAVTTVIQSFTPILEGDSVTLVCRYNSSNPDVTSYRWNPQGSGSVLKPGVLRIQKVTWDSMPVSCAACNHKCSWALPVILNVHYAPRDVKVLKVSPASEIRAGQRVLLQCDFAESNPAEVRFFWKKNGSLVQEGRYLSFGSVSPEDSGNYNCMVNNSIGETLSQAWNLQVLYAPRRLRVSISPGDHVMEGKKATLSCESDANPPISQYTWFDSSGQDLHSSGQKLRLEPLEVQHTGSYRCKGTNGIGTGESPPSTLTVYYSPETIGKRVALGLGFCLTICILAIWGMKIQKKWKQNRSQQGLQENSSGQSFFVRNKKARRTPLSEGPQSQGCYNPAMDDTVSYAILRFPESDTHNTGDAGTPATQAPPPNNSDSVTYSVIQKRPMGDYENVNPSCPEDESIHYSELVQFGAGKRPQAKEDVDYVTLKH

Molecule: 9-biphenylacetyl-N-glycolylneuraminic acid-α2-6-galactose-β1-4-N-acetylglucosamine-β-ethylamine [6′-^BPANeuGc]
- affinity for murine CD22, fold higher than natural ligand NeuGcα2-6Galβ1-4GlcNAc-β-ethylamine (murine CD22): 200 fold

Molecule: C=C1/C(=C\C=C2/CCC[C@]3(C)[C@@H]([C@H](C)CCCC(C)(C)O)CC[C@@H]23)C[C@@H](O)C[C@@H]1O [1,25-(OH)2D3, 1α,25-dihydroxyvitamin D3]
- treated mice in which appearance of paralysis was prevented (EAE model): 70%
- solubility in 1:5 solution of ethanol:PBS [1]: approx. 0.15 mg/ml
- solubility in ethanol [1]: approx. 50 mg/ml
- airway hyper-responsiveness [2]: significantly inhibited airway hyper-responsiveness
- diabetes development (NOD mice): prevented the development of diabetes; also recorded: prevented diabetes onset
- progression of arthritis and hypercalcemia [3]: effective in inhibiting the progression of arthritis without producing hypercalcemia

Molecule: CC/C=C\C[C@@H](O)/C=C/C=C\C=C\C=C\[C@@H](O)[C@@H](O)C/C=C\CCC(=O)O [17(R)-Resolvin D1]
- EC50 [4]: ~0.03 µM
- maximal inhibition of leukocyte infiltration [5]: ~35%

Molecule: C=C1CC[C@H](O)C/C1=C/C=C1\CCC[C@]2(C)[C@@H]([C@H](C)CCCC(C)(C)O)CC[C@@H]12 [25-OH-D3]
- serum level to be kept to avoid toxicity (based on experiments in the rat): below 250 ng/ml
- serum level at which toxicity occurs (rat, in vivo): ≥ 500 ng/mL
- adverse effects (multiple sclerosis; 1,000 to 40,000 IU/day): no adverse effects
- number of new lesions by MRI (multiple sclerosis; oral 4,000-40,000 IU/day, 28 weeks): significant decrease in the number of new lesions

Molecule: CC(=O)Oc1ccccc1C(=O)O [ASA, acetylsalicylic acid]
- IC50 (NF-kappa B translocation): ~3000 µM
- IC50 (IL-4 gene transcription): ~1000 µM

Molecule: Nc1ncnc2c1ncn2[C@@H]1O[C@H](COP(=O)(O)OP(=O)(O)OP(=O)(O)O)[C@@H](O)[C@H]1O [ATP]
- concentration effecting maximal migration of phagocytes (phagocytes): about 100 nM
- maximal migration of phagocytes, increase (phagocytes): threefold

Molecule: CSC[C@H](NC(=O)CC[C@H](N)C(=O)O)C(=O)NCC(=O)O [GSM, S-Methylglutathione]
- protection against deleterious effects of TNF-alpha on contraction [6]: protected

Molecule: CC(=O)N[C@@H](CS)C(=O)O [NAC, N-acetyl-L-cysteine]
- protection against deleterious effects of TNF-alpha on contraction [6]: not protected
- cytotoxicity in resting T cells (peripheral blood T cells; 1 mM to 20 mM, 3 day period, seven donors): nontoxic
- T cell function and growth (peripheral blood T cells; 10 mM): effective enhancer of T cell function
- decrease of ovalbumin-specific IgE ([7]; 0.5 g/liter in drinking water): ~30%
- decrease of ovalbumin-specific IgG1 ([7]; 0.5 g/liter in drinking water): ~30%
- decrease of ovalbumin-specific IgE response [7, 19]: more than 70%
- decrease of ovalbumin-specific IgG1 response [7, 19]: more than 70%
- safety and efficacy of high doses (cystic fibrosis): safe and effective

Molecule: O=C([O-])c1ccccc1O.[Na+] [SA, sodium salicylate]
- solubility in water ([1]; 20° C.): 2000 µg/mL

Molecule: NC(N)=NCCC[C@H](NC(=O)COCC(c1ccccc1)c1ccccc1)C(=O)O [SB290157]
- blood pressure effect [8]: rapid and transient hypertension
- in vivo half-life [9]: short in vivo half-life

Molecule: O=c1ccn([C@@H]2O[C@H](COP(=O)(O)OP(=O)(O)OP(=O)(O)O)[C@@H](O)[C@H]2O)c(=O)[nH]1 [UTP]
- concentration effecting maximal migration of phagocytes (phagocytes): about 100 nM
- maximal migration of phagocytes, increase (phagocytes): threefold

Molecule: C=C1/C(=C\C=C2/CCC[C@]3(C)[C@@H]([C@H](C)CCCC(C)C)CC[C@@H]23)C[C@@H](O)C[C@@H]1O [alfacalcidiol]
- patients going into remission (rheumatoid arthritis): 45%
- patients with improvement of disease activity (rheumatoid arthritis): 89%

Molecule: C=C1/C(=C\C=C2/CCC[C@]3(C)[C@@H]([C@H](C)/C=C/[C@@H](O)C4CC4)CC[C@@H]23)C[C@@H](O)C[C@@H]1O [calcipotriol]
- time detectable in serum by HPLC ([10]; i.v. 10 μg/kg): up to 5 min
- time detectable in serum by HPLC ([10]; i.v. 50 μg/kg): up to 10 min
- rate of clearance, times higher than for 1,25-(OH)2D3 ([10]; rat, in vivo): approximately 140 times
- solubility in 1:5 solution of ethanol:PBS [1]: approx. 0.15 mg/ml
- solubility in ethanol [1]: approx. 50 mg/ml
- systemic toxicity on topical use (psoriasis): without systemic toxicity
- antigen-specific CD8+ T cell priming [11]: abolished antigen-specific CD8+ T cell priming
- effect on calcium metabolism, times less than 1,25-(OH)2D3 (calcium metabolism): 100-200 times

Molecule: C=C1CC[C@H](O)C/C1=C/C=C1\CCC[C@]2(C)[C@@H]([C@H](C)CCCC(C)C)CC[C@@H]12 [cholecalciferol]
- children experiencing asthma exacerbation (asthma exacerbation): 17%

Molecule: CC[C@H](C)[C@H](N)C(=O)N[C@H]1CSSC[C@@H](C(=O)N[C@H](C(N)=O)[C@@H](C)O)NC(=O)[C@H](CCCN=C(N)N)NC(=O)[C@H](Cc2cnc[nH]2)NC(=O)[C@H](Cc2cnc[nH]2)NC(=O)CNC(=O)[C@H](Cc2c[nH]c3ccccc23)NC(=O)[C@H](CC(=O)O)NC(=O)[C@H](CCC(N)=O)NC(=O)[C@H](C(C)C)NC(=O)[C@H](C(C)C)NC1=O [compstatin]
- procoagulant response and organ protection [14]: decrease the procoagulant response

Molecule: CC/C=C\C[C@H](O)/C=C/C=C\C=C\C=C\[C@@H](O)[C@@H](O)C/C=C\CCC(=O)O [resolvin D1]
- EC50 [4]: ~0.03 µM

Molecule: MT-hsp65: 65 kDa heat shock protein of Mycobacterium tuberculosis
- diabetes development (NOD/Lt mice; single i.p. 50 μg emulsified in IFA): developed within 30 days after the treatment diabetes
- diabetes development (NOD/Lt mice; single i.p. injection in PBS): did not cause the development of diabetes

Molecule: PMX53
- safety and tolerability [16]: safe and well tolerated
- half-life ([9]; in vivo): 1.17 h

Molecule: TFGLQLELT [nonapeptide 180-188]
- rats showing clinical symptoms of adjuvant arthritis during pretreatment (adjuvant arthritis; i.p. 100 μg in FIA, 35 days before induction): none of the rats
- rats completely protected against subsequently induced adjuvant arthritis (adjuvant arthritis; three times 100 μg in FIA before induction): 11 out of 16

Molecule: vitamin D
- relative risk of type 1 diabetes over the subsequent 30 years (type 1 diabetes; doses of exactly 50 μg/day): 0.22
- relative risk of type 1 diabetes over the subsequent 30 years (type 1 diabetes; doses of over 50 μg/day (2000 IU/d) during infancy): 0.14

B1: Q116D/Y119D: murine IL-4 double mutant inhibiting IL-4/IL-13-mediated effects (protein, UniProt P07750 21-140, looked up, variant Q116D Y119D)
Interleukin-4: HIHGCDKNHLREIIGILNEVTGEGTPCTEMDVPNVLTATKNTTESELVCRASKVLRIFYLKHGKTPCLKKNSSVLMELQRLFRAFRCLDSSISCTMNESKSTSLKDFLESLKSIMDMDDS
- humoral immune responses to OVA and allergic symptoms [17]: completely abrogated
- outcome versus SIT with OVA only [18]: did not produce significantly different results
